Measured values from patent US7635701B2 (Glaxo Group Limited, priority 2002, dated 2009).

Legend:
[1] = molecular target: human cannabinoid CB2 receptor (Homo sapiens, UniProt P34972); assay: Cannabinoid CB2 receptor agonist activity in yeast cells (FDGlu fluorescence)
[2] = Particle size analysis on Lecotrac laser particle size analyser, pre and post nanomilling; assay type: physicochemical; settings: for Post-nanomilling 50% percentile particle size / Post-nanomilling 95% percentile particle size: after wet milling in aqueous 1.5% HPMC with YTZ beads; for Pre-nanomilling 50% percentile particle size / Pre-nanomilling 95% percentile particle size: starting material before nanomilling
Protocol: The particle size of the solid particles of compound (1) may be determined by laser diffraction. A suitable machine for determining particle size by laser diffraction is a Lecotrac laser particle size analyser, using an HELOS optical bench fitted with a QUIXEL dispersion unit.
2.5 g of compound of example 176 was weighed into a […] centrifuge tube. 25 ml of 0.3 mm yttrium zirconium (YTZ) ceramic milling beads (Manufacturer: Tosoh, Japan; Supplier: Glen Creston Ltd., batch no. 5280130030)”) was weighed into a 50 ml milling pot. 22.5 ml of aqueous 1.5% HPMC was measured with a measuring cylinder into a 100 ml beaker. This solution was homogenised for 3 seconds with an Ultra Turrax T25 homogeniser. Approximately 200 mg of the 2.5 g of the compound was added to the HPMC solution and homogenised at the lowest speed setting until the powder was wetted. This was repeated until all the compound had been added. The speed of the homogeniser was then increased to maximum and the suspension was homogenised for a further 3 minutes. This suspension was allowed to stand for 30 minutes in order to allow some of the foam to disperse. The suspension was then poured into the 50 ml pot containing the YTZ milling beads, stirring to release any trapped air. The lid to the pot was then fitted and the pot sealed with some Nesco film. This procedure was repeated for a second 50 ml nanomilling pot and both pots were placed on a Retsch mill and milled for a total of 8 hours.
The milling pots were removed from the Retsch mill and left to cool and for the foam to disperse overnight. In the morning the suspension and bead mixture was passed through a 200μ, 40 mm diameter screen. The contents from each 50 ml pot was washed with aqueous 1.5% HPMC: 10% of the original suspension volume (i.e. 2.5 ml). The suspension from the 2 pots was combined to make 1 batch. The suspension obtained from the method above was named the concentrate.
A particle size analysis was carried out on the Lecotrac laser particle size analyser. The results are shown in Table B along with the results from the starting material for comparison:
Compounds of Examples 19, 34, 194, 217, 228, 247 were nanomilled on a 1 g scale using the process described above and the particle size analysed pre and post nanomilling.

human cannabinoid CB2 receptor, sequence (P34972 whole entry): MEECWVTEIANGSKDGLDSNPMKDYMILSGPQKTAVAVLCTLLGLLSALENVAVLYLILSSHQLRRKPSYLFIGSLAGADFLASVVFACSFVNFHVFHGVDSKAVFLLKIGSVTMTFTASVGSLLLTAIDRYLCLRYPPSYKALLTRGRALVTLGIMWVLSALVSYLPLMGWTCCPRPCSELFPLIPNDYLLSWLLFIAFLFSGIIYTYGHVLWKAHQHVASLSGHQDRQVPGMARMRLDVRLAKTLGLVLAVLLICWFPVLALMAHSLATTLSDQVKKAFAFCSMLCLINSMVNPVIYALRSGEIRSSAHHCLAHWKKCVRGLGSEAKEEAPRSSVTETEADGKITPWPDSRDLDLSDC

Question: With O=C(NCC1CCCO1)c1cnc(Nc2cccc(F)c2)nc1C(F)(F)F (stereo in doubt) [Example 73, 2-(3-Fluoro-phenylamino)-4-trifluoromethyl-pyrimidine-5-carboxylic acid [(R)-1-(tetrahydro-furan-2-yl)methyl]-amide] as the molecule, how does the EC50 [1] read?
Answer: The EC50 was 300 to 1000 nM.

Question: Which results are given for N#Cc1ccc(Nc2ncc(C(=O)NCC3CCOCC3)c(C(F)(F)F)n2)cc1Cl [Ex 217, 2-(4-Cyano-3-chloro-phenylamino)-4-trifluoromethyl-pyrimidine-5-carboxylic acid (tetrahydro-pyran-4-ylmethyl)-amide]?
Answer: Post-nanomilling 50% percentile particle size [2]: 0.34 μ; Post-nanomilling 95% percentile particle size [2]: 1.30 μ; Pre-nanomilling 50% percentile particle size [2]: 5.70 μ; Pre-nanomilling 95% percentile particle size [2]: 34.9 μ

Question: For O=C(NCC1CCCC1)c1cnc(Nc2ccc(F)c(Cl)c2)nc1C(F)(F)F [Ex 247, 2-(3-Chloro-4-fluoro-phenylamino)-4-trifluoromethyl-pyrimidine-5-carboxylic acid cyclopentylmethyl-amide], which “Post-nanomilling 50% percentile particle size” value [2] is on record?
Answer: Its value is 0.64 μ.

Question: And the “Post-nanomilling 95% percentile particle size” value [2]?
Answer: The value was 2.53 μ.

Question: And the “Pre-nanomilling 50% percentile particle size” value [2]?
Answer: Its value is 13.2 μ.

Question: And the “Pre-nanomilling 95% percentile particle size” value [2]?
Answer: Its value is 68.7 μ.

Question: Which EC50 [1] does the source give for O=C(NCC1CCCCC1)c1cnc(Nc2ccccc2)nc1C(F)(F)F [Example 5] here?
Answer: Its EC50 is 20 to 300 nM.

Question: Which EC50 [1] does the source give for O=C(c1cnc(Nc2cccc(Br)c2)nc1C(F)(F)F)N1CCCCC1 [Example 12] here?
Answer: The EC50 was 20 to 300 nM.

Question: Which “Post-nanomilling 50% percentile particle size” value [2] does the source give for O=C(NCC1CCCCC1)c1cnc(Nc2cccc(F)c2)nc1C(F)(F)F [Example 19, 2-(3-Fluorophenylamino)-4-trifluoromethylpyrimidine-5-arboxylic acid cyclohexylmethyl-amide] here?
Answer: Its value is 0.40 μ.

Question: And the “Post-nanomilling 95% percentile particle size” value [2]?
Answer: Its value is 1.40 μ.

Question: And the “Pre-nanomilling 50% percentile particle size” value [2]?
Answer: The value was 5.22 μ.

Question: What about the “Pre-nanomilling 95% percentile particle size” value [2] of the same molecule?
Answer: The value was 25.5 μ.

Question: For O=C(NC1CCSCC1)c1cnc(Nc2cccc(Cl)c2Cl)nc1C(F)(F)F [Example 81, 2-(2,3-Diclorophenylamino)-4-trifluoromethyl-pyrimidine-5-carboxylic acid (tetrahydro-thiopyran-4-yl)-amide], which EC50 [1] is on record?
Answer: Its EC50 is 300 to 1000 nM.

Question: With O=C(NCC1(O)CCCCC1)c1cnc(Nc2cccc(F)c2)nc1C(F)(F)F [Example 86, 2-(3-Fluoropheny1-amino)4-trifluoro-methyl-pyrimidine-5-carboxylic acid(1-hydroxy-cyclohexyl-methyl)amide] as the molecule, how does the EC50 [1] read?
Answer: The EC50 was 300 to 1000 nM.

Question: Which results are given for N#Cc1ccc(Nc2ncc(C(=O)NCC3CCCC3)c(C(F)(F)F)n2)cc1 [Example 176, 2-(4-Cyanophenylamino)-4-trifluoromethyl-pyrimidine-5-carboxylic acid cyclopentylmethyl-amide]?
Answer: Post-nanomilling 50% percentile particle size [2]: 0.33 μ; Post-nanomilling 95% percentile particle size [2]: 1.78 μ; Pre-nanomilling 50% percentile particle size [2]: 13.15 μ; Pre-nanomilling 95% percentile particle size [2]: 68.7 μ

Question: For N#Cc1ccc(Nc2ncc(C(=O)NCC3CCC3)c(C(F)(F)F)n2)cc1Cl [Example 197], which EC50 [1] is on record?
Answer: The EC50 was 20 to 300 nM.

Question: For CC(C)CNC(=O)c1cnc(Nc2cccc(Cl)c2)nc1C(F)(F)F [Example 210], which EC50 [1] is on record?
Answer: The EC50 was 20 to 300 nM.
